Reference: patent publication US20200390689A1, “CERDULATINIB-CONTAINING TOPICAL SKIN PHARMACEUTICAL COMPOSITIONS AND USES THEREOF” (Dermavant Sciences GmbH, priority 2018, published 2020)
Read-outs that look alike come from different tables or passages of the source.

How the values were obtained:
vitiligo = experiment: Study DMVT-502-9025, mouse model of vitiligo; format: in vivo
Protocol: The model mimics human vitiligo by inducing epidermal depigmentation with autoreactive CD8+ T-cell accumulation. A schematic of the model is depicted in FIG. 15. […] Ten mice were used in the study: three REX3 reporter mice for cytokines CXCL9 and CXCL10 and seven SCF (stem cell factor) mice. The vitiligo study timeline is depicted in FIG. 16. The following assessments were performed during the study: • Blinded scoring of ears, tail, nose, and ventral feet (0-5 scale) • Epidermal, dermal, spleen, and lymph node PMEL (premelanosome protein) cell count • Epidermal/dermal APC (antigen-presenting cell) count • Keratinocyte cytokine expression

[1] = tested on: IL-4-mediated upregulation of CD23 and CD25 on monocytes; experiment: IL-4-mediated upregulation of cell surface markers CD23 and CD25 on monocytes; format: cell-based; details: Homo sapiens, Monocyte
[2] = tested on: IL-2 (JAK1/3-mediated signaling) STAT5 Y694 phosphorylation; experiment: IL-2 stimulated STAT5 Y694 phosphorylation in human whole blood; format: cell-based
Excerpt: (§1) To evaluate downstream signaling following cytokine stimulation, human whole blood was stimulated with IL-2 (JAK1/3-mediated signaling), which results in phosphorylation of STAT5 at tyrosine residue 694 (Y694). […] IL-6 (JAK1/2/Tyk2) stimulation leads to STAT3 Y705 phosphorylation in monocytes.

JAK1 = JAK1 (Homo sapiens, UniProt P23458); experiment: cell-based
Chain of JAK1 (P23458 whole entry): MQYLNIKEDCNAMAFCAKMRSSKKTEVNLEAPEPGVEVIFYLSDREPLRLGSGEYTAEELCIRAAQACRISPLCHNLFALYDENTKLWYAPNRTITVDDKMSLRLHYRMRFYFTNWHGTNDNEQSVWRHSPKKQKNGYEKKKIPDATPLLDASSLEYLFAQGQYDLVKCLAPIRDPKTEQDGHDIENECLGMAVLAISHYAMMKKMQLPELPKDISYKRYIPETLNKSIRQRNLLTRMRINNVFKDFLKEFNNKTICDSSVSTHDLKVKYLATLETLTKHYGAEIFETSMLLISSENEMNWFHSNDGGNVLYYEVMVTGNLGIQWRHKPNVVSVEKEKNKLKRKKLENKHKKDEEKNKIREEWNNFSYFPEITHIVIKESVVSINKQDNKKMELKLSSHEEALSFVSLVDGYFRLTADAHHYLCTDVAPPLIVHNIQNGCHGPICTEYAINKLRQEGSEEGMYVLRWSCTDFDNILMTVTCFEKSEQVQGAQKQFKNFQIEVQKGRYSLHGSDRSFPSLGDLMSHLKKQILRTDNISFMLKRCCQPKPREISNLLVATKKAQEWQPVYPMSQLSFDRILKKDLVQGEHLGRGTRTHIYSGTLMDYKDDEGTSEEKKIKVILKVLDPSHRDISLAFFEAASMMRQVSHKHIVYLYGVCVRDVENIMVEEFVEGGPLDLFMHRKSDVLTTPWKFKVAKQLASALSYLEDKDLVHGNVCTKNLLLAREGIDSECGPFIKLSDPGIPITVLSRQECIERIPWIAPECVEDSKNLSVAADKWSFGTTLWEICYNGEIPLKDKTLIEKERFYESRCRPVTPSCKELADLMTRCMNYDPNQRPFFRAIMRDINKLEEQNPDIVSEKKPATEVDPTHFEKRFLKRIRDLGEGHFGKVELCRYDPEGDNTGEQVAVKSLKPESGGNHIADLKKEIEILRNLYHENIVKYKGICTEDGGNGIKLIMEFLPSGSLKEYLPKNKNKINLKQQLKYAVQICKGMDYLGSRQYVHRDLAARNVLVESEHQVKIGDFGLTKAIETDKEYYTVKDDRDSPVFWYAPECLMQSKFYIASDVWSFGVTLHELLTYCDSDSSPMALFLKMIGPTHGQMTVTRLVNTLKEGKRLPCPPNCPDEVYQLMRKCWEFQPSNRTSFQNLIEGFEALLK

[3] = tested on: DNCB-induced atopic dermatitis; experiment: DNCB-induced atopic dermatitis in the NC/Nga mouse model; format: in vivo
Protocol: Atopic dermatitis was induced by repeated application of DNCB (1-chloro-2,4-dinitrobenzene) to the dorsal skin of the ears/back. […] Lesions were evaluated on days 2, 8, 11, and 14.
Macroscopic lesion severity scores are depicted in FIG. 7. Macroscopic skin lesion severity was measured on the indicated Study Days by assessing (0-3 scale) the presence of erythema, edema, excoriation/erosion, and dryness scaling on the ears, neck, and dorsal skin of animals.
Serum IgE levels are depicted in FIG. 8. Serum samples obtained on Study Day 15 were utilized for IgE quantitation. Select cytokine data from the study are depicted in FIG. 9. Skin samples harvested on Day 15 were analyzed by LUMINEX for inflammatory cytokine levels for IL-4, IL-5, IL-13, and IL-31.

Syk = target: T1, Syk (Homo sapiens, UniProt P43405); experiment: DiscoveRx cellular platform, Syk; format: cell-based
T1 construct: DiscoveRx

[4] = tested on: IL-6 (JAK1/2/Tyk2) STAT3 Y705 phosphorylation; experiment: IL-6 stimulated STAT3 Y705 phosphorylation in human whole blood; format: cell-based; details: Monocyte, monocytes
Excerpt: as §1

Tyk2 = target: T2, Tyk2 (Homo sapiens, UniProt P29597); experiment: DiscoveRx cellular platform, Tyk2; format: cell-based
T2 construct: DiscoveRx
T2 sequence (P29597 whole entry): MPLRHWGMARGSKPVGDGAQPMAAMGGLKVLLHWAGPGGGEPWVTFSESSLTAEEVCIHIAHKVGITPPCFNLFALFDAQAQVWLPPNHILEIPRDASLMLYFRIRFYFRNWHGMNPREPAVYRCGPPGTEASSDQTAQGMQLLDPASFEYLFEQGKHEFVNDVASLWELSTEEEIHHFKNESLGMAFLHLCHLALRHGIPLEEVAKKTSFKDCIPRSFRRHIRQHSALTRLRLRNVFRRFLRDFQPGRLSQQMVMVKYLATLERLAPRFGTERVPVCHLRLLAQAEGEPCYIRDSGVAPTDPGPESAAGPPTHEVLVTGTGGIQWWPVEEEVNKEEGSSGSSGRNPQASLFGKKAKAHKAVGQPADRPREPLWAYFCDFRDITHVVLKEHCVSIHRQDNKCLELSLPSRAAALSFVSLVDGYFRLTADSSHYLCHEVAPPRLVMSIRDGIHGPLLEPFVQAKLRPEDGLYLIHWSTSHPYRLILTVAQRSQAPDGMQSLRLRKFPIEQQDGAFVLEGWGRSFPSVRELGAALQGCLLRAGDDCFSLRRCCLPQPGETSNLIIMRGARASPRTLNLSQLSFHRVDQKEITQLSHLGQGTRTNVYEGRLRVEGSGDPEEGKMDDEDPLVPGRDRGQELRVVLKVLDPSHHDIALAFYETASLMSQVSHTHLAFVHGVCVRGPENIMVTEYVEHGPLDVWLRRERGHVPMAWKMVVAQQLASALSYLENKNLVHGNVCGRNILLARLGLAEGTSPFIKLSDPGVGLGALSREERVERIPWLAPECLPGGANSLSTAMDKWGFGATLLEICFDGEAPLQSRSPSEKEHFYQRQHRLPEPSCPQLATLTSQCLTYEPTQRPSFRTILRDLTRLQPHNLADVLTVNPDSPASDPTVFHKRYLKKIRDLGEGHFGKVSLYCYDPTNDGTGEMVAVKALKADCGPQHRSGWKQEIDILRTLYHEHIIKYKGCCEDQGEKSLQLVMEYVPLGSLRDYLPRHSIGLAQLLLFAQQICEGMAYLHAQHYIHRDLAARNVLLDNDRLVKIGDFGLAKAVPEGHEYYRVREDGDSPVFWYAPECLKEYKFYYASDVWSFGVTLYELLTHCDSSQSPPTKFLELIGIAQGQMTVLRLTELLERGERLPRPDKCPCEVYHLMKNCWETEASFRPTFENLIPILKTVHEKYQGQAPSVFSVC

JAK2 = JAK2 (Homo sapiens, UniProt O60674); experiment: cell-based
Chain of JAK2 (O60674 whole entry): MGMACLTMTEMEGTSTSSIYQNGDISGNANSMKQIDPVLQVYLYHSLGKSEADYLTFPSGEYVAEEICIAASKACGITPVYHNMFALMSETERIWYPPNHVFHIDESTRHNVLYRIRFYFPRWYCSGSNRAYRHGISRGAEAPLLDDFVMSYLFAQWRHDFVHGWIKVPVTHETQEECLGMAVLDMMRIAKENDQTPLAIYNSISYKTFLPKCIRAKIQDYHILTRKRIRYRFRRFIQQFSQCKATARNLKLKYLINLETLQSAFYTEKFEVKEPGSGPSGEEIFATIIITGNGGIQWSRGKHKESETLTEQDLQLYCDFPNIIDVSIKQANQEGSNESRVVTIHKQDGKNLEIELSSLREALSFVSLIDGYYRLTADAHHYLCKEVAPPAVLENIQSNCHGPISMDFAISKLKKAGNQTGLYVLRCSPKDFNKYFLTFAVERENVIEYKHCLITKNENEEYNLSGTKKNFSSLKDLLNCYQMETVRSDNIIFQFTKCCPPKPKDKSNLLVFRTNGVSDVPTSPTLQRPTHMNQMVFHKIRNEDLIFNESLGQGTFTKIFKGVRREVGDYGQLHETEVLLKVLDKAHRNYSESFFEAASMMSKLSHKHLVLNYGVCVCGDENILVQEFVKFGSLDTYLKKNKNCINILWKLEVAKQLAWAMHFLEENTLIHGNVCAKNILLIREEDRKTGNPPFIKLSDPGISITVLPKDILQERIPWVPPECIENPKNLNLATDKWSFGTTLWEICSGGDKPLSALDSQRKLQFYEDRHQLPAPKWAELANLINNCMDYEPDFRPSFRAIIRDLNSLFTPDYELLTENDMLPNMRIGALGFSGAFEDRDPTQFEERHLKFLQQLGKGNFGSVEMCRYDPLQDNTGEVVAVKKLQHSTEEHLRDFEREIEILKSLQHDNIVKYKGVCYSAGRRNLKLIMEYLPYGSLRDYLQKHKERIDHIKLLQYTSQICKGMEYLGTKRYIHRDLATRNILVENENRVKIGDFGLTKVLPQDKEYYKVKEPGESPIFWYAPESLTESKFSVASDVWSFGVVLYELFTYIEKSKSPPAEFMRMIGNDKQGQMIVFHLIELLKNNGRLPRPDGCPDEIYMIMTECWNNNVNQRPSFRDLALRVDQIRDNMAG

[5] = tested on: monocyte differentiation into immature DCs; experiment: IL-4/GM-CSF-mediated monocyte differentiation to immature dendritic cells (flow cytometry); format: cell-based; details: Homo sapiens, 120 h, purified monocytes, CD1a expression after five days
Protocol: Dendritic cells (DCs) are important antigen presenting cells that play an integral role in mediating inflammatory skin diseases. A subset of DCs are derived from monocytes and this differentiation is driven by IL-4/GM-CSF co-stimulation. The ability of DMVT-502 to disrupt the signaling responsible for monocyte differentiation into immature DCs was assessed by flow cytometry. […] Five days later, cells were stained for CD14 (monocyte marker) and CD1a (immature dendritic cell marker) and assessed for immature DC differentiation.

[6] = tested on: IL-4 (JAK1/3-mediated) STAT6 Y641 phosphorylation; experiment: IL-4 stimulated STAT6 Y641 phosphorylation in human whole blood; format: cell-based
Excerpt: as §1

[7] = tested on: JAK1/JAK3-dependent signaling pathways; experiment: Cytokine-mediated STAT phosphorylation in peripheral blood mononuclear cells (phospho-flow cytometry); format: cell-based; details: Homo sapiens; PBMC; T cells and monocytes
[8] = tested on: GM-CSF (JAK2-mediated) STAT5 Y694 phosphorylation; experiment: GM-CSF stimulated STAT5 Y694 phosphorylation in human whole blood; format: cell-based; details: Monocyte, monocytes, read-out: IC50, GM-CSF induced STAT5 Y694 phosphorylation
[9] = 30 and 60 mg/kg oral, vs vehicle

CCS(=O)(=O)N1CCN(c2ccc(Nc3ncc(C(N)=O)c(NC4CC4)n3)cc2)CC1 [DMVT-502, Cerdulatinib]
CD3+, CD8− T-cell counts in the spleen (vitiligo; 60 mg/kg oral): significantly reduced | Host T-cell counts in blood (vitiligo; 60 mg/kg oral): significantly decreased | PMEL T-cell counts in dermis and blood (vitiligo; 60 mg/kg oral): significantly reduced | APCs in the dermal skin compartment and Langerhans cells in the epidermal skin compartment (vitiligo; 60 mg/kg oral, vs vehicle): significantly reduced | Vitiligo scores (vitiligo; 30 and 60 mg/kg once daily oral, 5 weeks, vs vehicle): significantly decreased | Host-derived total T-cell counts in the spleen (vitiligo; 30 and 60 mg/kg oral): significantly reduced | APC counts in lymph nodes and the spleen (vitiligo; [9]): significantly reduced | PMEL T-cell counts in the epidermis and dermis (vitiligo; [9]): significantly reduced | CXCL9 and CXCL10 expression in lymph node APCs (vitiligo; 30 or 60 mg/kg oral): Reduced | Lymph node or spleen PMEL T cells (vitiligo; 30 or 60 mg/kg oral): no significant differences | CXCL9, CXCL10, and dual expression in keratinocytes (vitiligo; SCF/REX3 mice, vs vehicle): trends towards reduced | Total keratinocyte counts (vitiligo; between treatment groups): No decrease | IC50 ([1]; read-out: IC50, IL-4-mediated upregulation of CD23): 230 nM | IC50 ([1]; read-out: IC50, IL-4-mediated upregulation of CD25): 420 nM | IC50 ([2]; CD4+ T cells): 300 nM | IC50 ([2]; T-cell, CD8+ T cells): 160 nM | IC50 (JAK1): 98 nM | Pro-inflammatory cytokine levels in skin ([3]; Day 15, topical treatment): limited suppression | Serum IgE levels ([3]; Study Day 15, topical therapy): trends towards reduction | IC50 (Syk): 1280 nM | IC50 [4]: 260 nM | IC50 (Tyk2): 1720 nM | IC50 (JAK2): 4.86 µM | IC50 [5]: ~100 nM | IC50 ([6]; B-cell, CD19+ B cells): 920 nM | IC50 ([6]; CD4+ T cells): 580 nM | IC50 ([6]; Monocyte, CD14+ monocytes): 998 nM | IC50 ([6]; T-cell, CD8+ T cells): 330 nM | IC50 [7]: < 200 nM | IC50 [8]: ~4 µM
